Data reported in US11053204B2, “Pyrimidinyloxy benzene derivatives as herbicides” (FMC Corporation, priority 2015, dated 2021).

Columns and labels:
Type in all cases: in vivo
kochia (Kochia scoparia) = experiment: Test C postemergence, plant response rating; conditions: for Kochia plant response rating: scale 0 to 100 (0 no effect, 100 complete control)
Outline: (§1)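 Preemergence: seeds sown in loam–sand blend or silt loam and sprayed with test chemicals in a non-phytotoxic surfactant-containing solvent. Postemergence: potted plants at 2–18 cm (1–4-leaf stage) sprayed with the same formulation. After 13–15 d in greenhouse, visual rating versus controls on 0 (no effect) to 100 (complete control) scale.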

[1] = test system: waterhemp (common waterhemp, Amaranthus rudis); experiment: Test C postemergence, plant response rating
Outline: as §1

[2] = test system: chickweed (common chickweed, Stellaria media); experiment: Test C postemergence, plant response rating; conditions: for Chickweed plant response rating: scale 0 to 100 (0 no effect, 100 complete control)
Outline: as §1

[3] = test system: blackgrass (Alopecurus myosuroides); experiment: Test C postemergence, plant response rating; conditions: for Plant response rating, Blackgrass: scale 0 to 100; for Blackgrass plant response rating: scale 0 to 100 (0 no effect, 100 complete control)
Outline: as §1

[4] = test system: wheat (winter wheat, Triticum aestivum); experiment: Test C postemergence, plant response rating
Outline: as §1

[5] = test system: foxtail, giant (giant foxtail, Setaria faberii); experiment: Test C postemergence, plant response rating; conditions: for Foxtail, Giant plant response rating: scale 0 to 100 (0 no effect, 100 complete control)
Outline: as §1

[6] = test system: morningglory (Ipomoea coccinea); experiment: Test C postemergence, plant response rating; conditions: for Morningglory plant response rating: scale 0 to 100 (0 no effect, 100 complete control)
Outline: as §1

[7] = test system: ragweed (common ragweed, Ambrosia elatior); experiment: Test C postemergence, plant response rating; conditions: for Ragweed plant response rating: scale 0 to 100 (0 no effect, 100 complete control)
Outline: as §1

[8] = test system: oilseed rape (Brassica napus); experiment: Test C postemergence, plant response rating; conditions: for Oilseed Rape plant response rating: scale 0 to 100 (0 no effect, 100 complete control)
Outline: as §1

soybean (Glycine max) = experiment: Test C postemergence, plant response rating; conditions: for Soybean plant response rating: scale 0 to 100 (0 no effect, 100 complete control)
Outline: as §1

[9] = test system: oat, wild (wild oat Avena fatua); experiment: Test C postemergence, plant response rating; conditions: for Oat, Wild plant response rating: scale 0 to 100 (0 no effect, 100 complete control)
Outline: as §1

[10] = test system: galium (catchweed bedstraw, Galium aparine); experiment: Test C postemergence, plant response rating; conditions: for Galium plant response rating: scale 0 to 100 (0 no effect, 100 complete control)
Outline: as §1

corn (Zea mays) = experiment: Test C postemergence, plant response rating; conditions: for Corn plant response rating: scale 0 to 100 (0 no effect, 100 complete control)
Outline: as §1

[11] = test system: nutsedge, yellow (yellow nutsedge, Cyperus esculentus); experiment: Test C postemergence, plant response rating; conditions: for Nutsedge, Yellow plant response rating: scale 0 to 100 (0 no effect, 100 complete control)
Outline: as §1

[12] = test system: velvetleaf (Abutilon theophrasti); experiment: Test C postemergence, plant response rating
Outline: as §1

[13] = test system: lambsquarters (Chenopodium album); experiment: Test C postemergence, plant response rating; conditions: for Lambsquarters plant response rating: scale 0 to 100 (0 no effect, 100 complete control)
Outline: as §1

[14] = test system: pigweed, palmer (palmer pigweed, Amaranthus palmeri); experiment: Test C preemergence, plant response rating
[15] = test system: wild poinsettia (Euphorbia heterophylla); experiment: Test C preemergence, plant response rating
[16] = test system: windgrass (Apera spica-venti); experiment: Test C preemergence, plant response rating
[17] = test system: oat, wild (wild oat Avena fatua); experiment: Test C preemergence, plant response rating
[18] = test system: surinam grass (Brachiaria decumbens); experiment: Test C preemergence, plant response rating
[19] = 125 g ai/ha, scale 0 to 100 (0 no effect, 100 complete control)

## CCCC(=O)c1c(Oc2ncc(Cl)cn2)cccc1C(F)(F)F [Compound 136]
Kochia (Kochia scoparia); 16 g ai/ha, scale of 0 to 100
  Plant response rating, Kochia: 80
Kochia (Kochia scoparia); 31 g ai/ha, scale 0 to 100
  Plant response rating, Kochia: 80
Kochia (Kochia scoparia); 62 g ai/ha
  Kochia plant response rating: 85
Kochia (Kochia scoparia); 125 g ai/ha
  Kochia plant response rating: 90
[1]; 16 g ai/ha, scale of 0 to 100
  Plant response rating, Waterhemp: 70
[1]; 31 g ai/ha, scale 0 to 100
  Plant response rating, Waterhemp: 70
[1]; [19]
  Waterhemp plant response rating: 75
[2]; 16 g ai/ha, scale of 0 to 100
  Plant response rating, Chickweed: 55
[2]; 31 g ai/ha, scale 0 to 100
  Plant response rating, Chickweed: 65
[2]; 62 g ai/ha
  Chickweed plant response rating: 75
[2]; 125 g ai/ha
  Chickweed plant response rating: 80
[3]; 16 g ai/ha
  Plant response rating, Blackgrass: 5
[3]; 31 g ai/ha
  Plant response rating, Blackgrass: 10
[3]; 62 g ai/ha
  Blackgrass plant response rating: 10
[3]; 125 g ai/ha
  Blackgrass plant response rating: 15
[4]; 16 g ai/ha, scale of 0 to 100
  Plant response rating, Wheat: 0
[4]; 31 g ai/ha, scale 0 to 100
  Plant response rating, Wheat: 5
[4]; [19]
  Wheat plant response rating: 5
[5]; 16 g ai/ha, scale of 0 to 100
  Plant response rating, Foxtail, Giant: 10
[5]; 31 g ai/ha, scale 0 to 100
  Plant response rating, Foxtail, Giant: 20
[5]; 62 g ai/ha
  Foxtail, Giant plant response rating: 10
[5]; 125 g ai/ha
  Foxtail, Giant plant response rating: 25
[6]; 16 g ai/ha, scale of 0 to 100
  Plant response rating, Morningglory: 10
[6]; 31 g ai/ha, scale 0 to 100
  Plant response rating, Morningglory: 15
[6]; 62 g ai/ha
  Morningglory plant response rating: 20
[6]; 125 g ai/ha
  Morningglory plant response rating: 35
[7]; 16 g ai/ha, scale of 0 to 100
  Plant response rating, Ragweed: 20
[7]; 31 g ai/ha, scale 0 to 100
  Plant response rating, Ragweed: 20
[7]; 62 g ai/ha
  Ragweed plant response rating: 30
[7]; 125 g ai/ha
  Ragweed plant response rating: 35
[8]; 16 g ai/ha, scale of 0 to 100
  Plant response rating, Oilseed Rape: 65
[8]; 31 g ai/ha, scale 0 to 100
  Plant response rating, Oilseed Rape: 80
[8]; 62 g ai/ha
  Oilseed Rape plant response rating: 80
[8]; 125 g ai/ha
  Oilseed Rape plant response rating: 80
Soybean (Glycine max); 16 g ai/ha, scale of 0 to 100
  Plant response rating, Soybean: 30
Soybean (Glycine max); 31 g ai/ha, scale 0 to 100
  Plant response rating, Soybean: 40
Soybean (Glycine max); 62 g ai/ha
  Soybean plant response rating: 50
Soybean (Glycine max); 125 g ai/ha
  Soybean plant response rating: 40
[9]; 16 g ai/ha, scale of 0 to 100
  Plant response rating, Oat, Wild: 5
[9]; 31 g ai/ha, scale 0 to 100
  Plant response rating, Oat, Wild: 5
[9]; 62 g ai/ha
  Oat, Wild plant response rating: 10
[9]; 125 g ai/ha
  Oat, Wild plant response rating: 10
[10]; 16 g ai/ha, scale of 0 to 100
  Plant response rating, Galium: 50
[10]; 31 g ai/ha, scale 0 to 100
  Plant response rating, Galium: 65
[10]; 62 g ai/ha
  Galium plant response rating: 60
[10]; 125 g ai/ha
  Galium plant response rating: 75
Corn (Zea mays); 16 g ai/ha, scale of 0 to 100
  Plant response rating, Corn: 5
Corn (Zea mays); 31 g ai/ha, scale 0 to 100
  Plant response rating, Corn: 10
Corn (Zea mays); 62 g ai/ha
  Corn plant response rating: 20
Corn (Zea mays); 125 g ai/ha
  Corn plant response rating: 20
[11]; 16 g ai/ha, scale of 0 to 100
  Plant response rating, Nutsedge, Yellow: 0
[11]; 31 g ai/ha, scale 0 to 100
  Plant response rating, Nutsedge, Yellow: 0
[11]; 62 g ai/ha
  Nutsedge, Yellow plant response rating: 0
[11]; 125 g ai/ha
  Nutsedge, Yellow plant response rating: 5
[12]; 16 g ai/ha, scale of 0 to 100
  Plant response rating, Velvetleaf: 20
[12]; 31 g ai/ha, scale 0 to 100
  Plant response rating, Velvetleaf: 50
[12]; [19]
  Velvetleaf plant response rating: 70
[13]; 16 g ai/ha, scale of 0 to 100
  Plant response rating, Lambsquarters: 55
[13]; 31 g ai/ha, scale 0 to 100
  Plant response rating, Lambsquarters: 75
[13]; 62 g ai/ha
  Lambsquarters plant response rating: 80
[13]; 125 g ai/ha
  Lambsquarters plant response rating: 80
[14]; 31 g ai/ha, scale 0 to 100
  Plant response rating, Pigweed, Palmer: 75
[14]; 62 g ai/ha, scale 0 to 100
  Plant response rating, Pigweed, Palmer: 100
[14]; 125 g ai/ha, scale of 0 to 100
  Plant response rating, Pigweed, Palmer: 100
[15]; 31 g ai/ha, scale 0 to 100
  Plant response rating, Poinsettia, Wild: 5
[15]; 62 g ai/ha, scale 0 to 100
  Plant response rating, Poinsettia, Wild: 25
[15]; 125 g ai/ha, scale of 0 to 100
  Plant response rating, Poinsettia, Wild: 50
[16]; 31 g ai/ha, scale 0 to 100
  Plant response rating, Windgrass: 30
[16]; 62 g ai/ha, scale 0 to 100
  Plant response rating, Windgrass: 85
[16]; 125 g ai/ha, scale of 0 to 100
  Plant response rating, Windgrass: 100
[17]; 31 g ai/ha, scale 0 to 100
  Plant response rating, Oat, Wild: 0
[17]; 62 g ai/ha, scale 0 to 100
  Plant response rating, Oat, Wild: 5
[17]; 125 g ai/ha, scale of 0 to 100
  Plant response rating, Oat, Wild: 45
[18]; 31 g ai/ha, scale 0 to 100
  Plant response rating, Surinam Grass: 25
[18]; 62 g ai/ha, scale 0 to 100
  Plant response rating, Surinam Grass: 10
[18]; 125 g ai/ha, scale of 0 to 100
  Plant response rating, Surinam Grass: 100
